Measured values: a melting point compilation (Tetko et al.; mined from patent text by program, amines drawn as free bases though some values may be those of a salt)

Compound | melting point [°C]
Cc1cccc([N+](=O)[O-])c1CNc1cccn2c(C)c(C)nc12 | 160 to 162
Cc1cc2nn(C)c(=O)n2nc1-c1cccc([N+](=O)[O-])c1 | 250 to 253
Cc1ccc(-c2ccc(Cl)c(C(=O)O)n2)cc1C(=O)NCC1CCCCCC1 | 177 to 178
Cc1cc(C2=NCCO2)cc(C)c1O | 184 to 186
COc1ccc(-n2ccc3ccccc32)cc1F | 65 to 67
COc1cc(OC)c2cnoc2c1 | 100 to 101
CC(C)(C)c1ccc(C(=O)CCC(=O)O)cc1 | 117 to 120
COc1cc2c(cc1O)C1Cc3c(Cl)cc(OC)c(O)c3CN1CC2 (configuration not stated) | 136 to 138
CC(=O)NCC1CC1c1cccc2nc(C)nn12 (configuration not stated) | 124 to 126
Cn1c(SCSC#N)nc2ccccc2c1=O | 118 to 121
O=C(Cc1ccc(Cl)cc1Cl)N1CCN(c2cnccn2)CC1 | 124 to 125
COc1ccc(CCCc2c[nH]c(C(=O)N3CCC[C@@H]3C(=O)N[C@H]3CC(=O)O[C@@H]3OCc3ccccc3)n2)cc1 | 62 to 65
Cc1cc(Nc2nccc(-c3sc(N)nc3C)n2)ccc1N1CCOCC1 | 256 to 257
COc1nc(OC)nc(C2CC2)n1 | 68 to 70
O=[N+]([O-])c1cc(C2OCCCO2)ccc1O | 70 to 71
N#CC1(C#N)C2CCC(C2)C1(Cl)Cl (configuration not stated) | 148
COc1ccc(-c2coc3cc(O)ccc3c2=O)c(O)c1 | 210 to 212
COc1cc(OC)c(-c2cccs2)cc1/C=C/C(=O)c1ccccc1C(=O)O | 196 to 198
CCCCC(F)c1cc(=O)[nH]cn1 (configuration not stated) | 148
CCOC(=O)CCNCC(O)COc1cccc(C)c1 (configuration not stated) | 57
CC(=O)OCc1cncc(COc2cc3c(=O)c(Cc4cccnc4)cn4c5ccc(Br)cc5c(c2)c34)c1 | 83.5 to 84.5

Compound | melting point [°C]
N#Cc1cnn2c1N(C(=O)CN1CCN(C(=O)Nc3ccccc3)CC1)CC=C2c1cccc(C(F)(F)F)c1 | 184 to 187
COc1ccc2c3c1OC1C(=O)C(C)CC4(OC)C(C2)N(C)CCC314 (configuration not stated) | 215 to 221
COc1cc2c(cc1OC)-c1c(C(=O)NC3CCCCC3)c(-c3cc(C)c(O)c(C)c3)c(C)n1CC2 | 273 to 276
CC=Cc1cccc(Oc2ccccc2Cl)c1OC | 61 to 62
CC(C)c1cc(Oc2ccc(Cl)cc2C(=O)O)cc(C(C)C)c1 | 129 to 130
COc1cc(Nc2nccc(-c3sc(-c4cccnc4)nc3C)n2)cc(OC)c1 | 229 to 230
O=C1Nc2cc([N+](=O)[O-])ccc2OC1(C(F)F)C(F)F | 178 to 181
CN(C(=O)N(C)c1ccc(C(=O)O)cc1)c1ccc(C(=O)O)cc1 | 291 to 292
CCOC(=O)C1=C(C)NC(C)=C(C(=O)OCCN2CCN(C(c3ccccc3)c3ccccc3)CC2)C1c1ccccc1Cl (configuration not stated) | 76 to 78
COC(=O)c1sc(C)c(C)c1OC | 37 to 39
CN(C)CCn1c(=O)[nH]c2cccnc21 | 141 to 142
CCOC(=O)CCN=c1sc2ccc(Cl)cc2s1 | 64 to 65
CN(C)CC1(C2(O)CCCCC2)Cc2cc3c(cc21)N(S(C)(=O)=O)CC3 (configuration not stated) | 156 to 158
NS(=O)(=O)c1c(Cl)cccc1-c1ccccc1 | 185 to 187
Cc1c(C(N)=O)c(C(F)(F)F)nn1-c1c(Cl)cc(C(F)(F)F)cc1Cl | 165 to 170
O=C(CO)c1ccc(C(F)(F)F)cc1 | 112 to 114
CC(=O)Oc1ccc(-c2cnc[nH]c2=O)cc1OC(C)=O | 183 to 184
OC1c2ccc(OCc3ccccc3)cc2OCC1N1CCC(O)(c2ccc(F)cc2)CC1 (configuration not stated) | 194 to 195
O=C(CBr)NCCC(=O)ON1C(=O)CCC1=O | 107 to 110
COc1ccc(S(=O)(=O)C(C/C=C(\C)CCC=C(C)C)(Cc2ccc(OCCN3CCOCC3)cc2)C(=O)NO)cc1 (configuration not stated) | 61
O=C(CCl)Nc1ccc2c(c1NC(=O)C1CCCCC1)C(=O)c1ccccc1C2=O | 216 to 217
